This is an account of results in patent publication US9776962B2, “Aromatic compounds with GPR40 agonistic activity” (TAKEDA PHARMACEUTICAL COMPANY LIMITED, priority 2013, dated 2017).

For this test, the target named is T1, human GPR40 (Homo sapiens, UniProt O14842).
T1 construct: expressed in transfected cells
T1 sequence (O14842 whole entry): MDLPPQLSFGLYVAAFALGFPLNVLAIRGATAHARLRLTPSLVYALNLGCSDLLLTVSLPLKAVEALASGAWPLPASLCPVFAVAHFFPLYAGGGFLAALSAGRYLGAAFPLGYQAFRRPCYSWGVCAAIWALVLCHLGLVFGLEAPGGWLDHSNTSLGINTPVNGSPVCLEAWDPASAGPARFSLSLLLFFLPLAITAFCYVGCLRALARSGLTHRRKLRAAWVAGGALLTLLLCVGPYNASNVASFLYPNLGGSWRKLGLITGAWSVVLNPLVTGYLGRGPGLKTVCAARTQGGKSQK
The experiment in a line: Evaluation of human GPR40 agonist activity with increase in intracellular Ca2+ concentration as an index (FLIPR). It counts as cell-based. The conditions noted are these: test compound 1 μM; CHO(dhfr−) cells stably expressing human GPR40; 100% = 10 μM compound of Example 153, 0% = DMSO. In outline:
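CHO(dhfr−) cells stably expressing full-length human GPR40 were loaded with Ca2+ probe for 1 h at room temperature, then given test compound at 1 μM final. Fluorescence was followed on FLIPR, with activity scaled to a reference agonist at 10 μM (100%) and DMSO (0%).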
`COc1ccc(C(=O)N(c2ccccn2)C2CCN(Cc3ccccc3)CC2)c(N2CCC(COc3cc(C(CC(=O)O)C4CC4)ccn3)CC2)c1` (stereo not drawn) [Example 190, 3-(2-((1-(2-((1-benzylpiperidin-4-yl)(pyridin-2-yl)carbamoyl)-5-methoxyphenyl)piperidin-4-yl)methoxy)pyridin-4-yl)-3-cyclopropylpropanoic acid]: the “Activity (human GPR40 agonist activity)” value is reported as 66%.

Take `COc1ccc(C(=O)N(c2ccccn2)C2CCN(CC(F)(F)F)CC2)c(N2CCC(COc3cc(C(CC(=O)O)C4CC4)ccn3)CC2)c1` (stereo not drawn) [Example 191, 3-cyclopropyl-3-(2-((1-(5-methoxy-2-(pyridin-2-yl(1-(2,2,2-trifluoroethyl)piperidin-4-yl)carbamoyl)phenyl)piperidin-4-yl)methoxy)pyridin-4-yl)propanoic acid]: the “Activity (human GPR40 agonist activity)” value is 86%.

Turning to `COc1ccc(C(=O)N(CC(C)(C)C)C2CC2)c(N2CCC(COc3cc(C(CC(=O)O)C4CC4)ccn3)CC2)c1` (stereo not drawn) [Example 192, 3-cyclopropyl-3-(2-((1-(2-(cyclopropyl(2,2-dimethylpropyl)carbamoyl)-5-methoxyphenyl)piperidin-4-yl)methoxy)pyridin-4-yl)propanoic acid], the activation at 1 µM was found to be 90%.

`COc1ccc(C(=O)NC2CCN(CC(F)(F)F)CC2)c(N2CCC(COc3cc(C(CC(=O)O)C4CC4)ccn3)CC2)c1` (stereo not drawn) [Example 193, 3-cyclopropyl-3-(2-((1-(5-methoxy-2-((1-(2,2,2-trifluoroethyl)piperidin-4-yl)carbamoyl)phenyl)piperidin-4-yl)methoxy)pyridin-4-yl)propanoic acid] gave an activation at 1 µM of 39%.

In the case of `COc1ccc(C(=O)N(C)C2CCN(CC(F)(F)F)CC2)c(N2CCC(COc3cc(C(CC(=O)O)C4CC4)ccn3)CC2)c1` (stereo not drawn) [Example 194, 3-cyclopropyl-3-(2-((1-(5-methoxy-2-(methyl(1-(2,2,2-trifluoroethyl)piperidin-4-yl)carbamoyl)phenyl)piperidin-4-yl)methoxy)pyridin-4-yl)propanoic acid], the activation at 1 µM came out at 77%.

As to `COc1ccc(C(=O)N(CC2CCCCC2)c2ccccn2)c(N2CCC(COc3cc(C(CC(=O)O)C4CC4)ccn3)CC2)c1` (stereo not drawn) [Example 195, 3-(2-((1-(2-((cyclohexylmethyl)(pyridin-2-yl)carbamoyl)-5-methoxyphenyl)piperidin-4-yl)methoxy)pyridin-4-yl)-3-cyclopropylpropanoic acid], the activation at 1 µM came to 98%.

As for `COc1ccc(C(=O)N(CC2CCOCC2)c2ccccn2)c(N2CCC(COc3cc(C(CC(=O)O)C4CC4)ccn3)CC2)c1` (stereo not drawn) [Example 196, 3-cyclopropyl-3-(2-((1-(5-methoxy-2-(pyridin-2-yl(tetrahydro-2H-pyran-4-ylmethyl)carbamoyl)phenyl)piperidin-4-yl)methoxy)pyridin-4-yl)propanoic acid], the activation at 1 µM worked out at 81%.

`COc1ccc(C(=O)N(Cc2ccccc2)c2ccccn2)c(N2CCC(COc3cc(C(CC(=O)O)C4CC4)ccn3)CC2)c1` (stereo not drawn) [Example 197, 3-(2-((1-(2-(benzyl(pyridin-2-yl)carbamoyl)-5-methoxyphenyl)piperidin-4-yl)methoxy)pyridin-4-yl)-3-cyclopropylpropanoic acid] registered an activation at 1 µM of 103%.

In turn, `COc1ccc(C(=O)N(CC(C)(C)C)C2CCCC2)c(N2CCC(COc3cc(C(CC(=O)O)C4CC4)ccn3)CC2)c1` (stereo not drawn) [Example 198, 3-(2-((1-(2-(cyclopentyl(2,2-dimethylpropyl)carbamoyl)-5-methoxyphenyl)piperidin-4-yl)methoxy)pyridin-4-yl)-3-cyclopropylpropanoic acid] gave an activation at 1 µM of 94%.

On to `COc1ccc(C(=O)N2CCOc3ccccc32)c(N2CCC(COc3cc(C(CC(=O)O)C4CC4)ccn3)CC2)c1` (stereo not drawn) [Example 199, 3-cyclopropyl-3-(2-((1-(2-(2,3-dihydro-4H-1,4-benzoxazin-4-ylcarbonyl)-5-methoxyphenyl)piperidin-4-yl)methoxy)pyridin-4-yl)propanoic acid], for which the activation at 1 µM is 93%.

`COc1ccc(C(=O)N2CCOCC2c2ccccc2)c(N2CCC(COc3cc(C(CC(=O)O)C4CC4)ccn3)CC2)c1` (stereo not drawn) [Example 200, 3-cyclopropyl-3-(2-((1-(5-methoxy-2-((3-phenylmorpholin-4-yl)carbonyl)phenyl)piperidin-4-yl)methoxy)pyridin-4-yl)propanoic acid] showed an activation at 1 µM of 89%.

In the case of `COc1ccc(C(=O)N2CCOCC2Cc2ccccc2)c(N2CCC(COc3cc(C(CC(=O)O)C4CC4)ccn3)CC2)c1` (stereo not drawn) [Example 201, 3-(2-((1-(2-((3-benzylmorpholin-4-yl)carbonyl)-5-methoxyphenyl)piperidin-4-yl)methoxy)pyridin-4-yl)-3-cyclopropylpropanoic acid], the activation at 1 µM was determined as 92%.

Molecule `COc1ccc(C(=O)N2CC(F)(F)OC(F)(F)C2)c(N2CCC(COc3cc(C(CC(=O)O)C4CC4)ccn3)CC2)c1` (stereo not drawn) [Example 202, 3-cyclopropyl-3-(2-((1-(5-methoxy-2-((2,2,6,6-tetrafluoromorpholin-4-yl)carbonyl)phenyl)piperidin-4-yl)methoxy)pyridin-4-yl)propanoic acid] registered an activation at 1 µM of 102%.

In turn, `COc1ccc(C(=O)N(CC(C)(C)C)c2cc(C)nc(C)n2)c(N2CCC(COc3cc(C(CC(=O)O)C4CC4)ccn3)CC2)c1` (stereo not drawn) [Example 228, 3-cyclopropyl-3-(2-((1-(2-((2,2-dimethylpropyl) (2,6-dimethylpyrimidin-4-yl)carbamoyl)-5-methoxyphenyl)piperidin-4-yl)methoxy)pyridin-4-yl)propanoic acid] gave an activation at 1 µM of 99%.

The molecule `COc1ccc(C(=O)N(CC(C)(C)C)c2ccnc(C)n2)c(N2CCC(COc3cc(C(CC(=O)O)C4CC4)ccn3)CC2)c1` (stereo not drawn) [Example 229, 3-cyclopropyl-3-(2-((1-(2-((2,2-dimethylpropyl) (2-methylpyrimidin-4-yl)carbamoyl)-5-methoxyphenyl)piperidin-4-yl)methoxy)pyridin-4-yl)propanoic acid] had an activation at 1 µM of 101%.

Regarding `COc1ccc(C(=O)N(CC(C)(C)C)c2cc(C)ncn2)c(N2CCC(COc3cc(C(CC(=O)O)C4CC4)ccn3)CC2)c1` (stereo not drawn) [Example 230, 3-cyclopropyl-3-(2-((1-(2-((2,2-dimethylpropyl) (6-methylpyrimidin-4-yl)carbamoyl)-5-methoxyphenyl)piperidin-4-yl)methoxy)pyridin-4-yl)propanoic acid], the activation at 1 µM came to 98%.

In turn, `COc1ccc(C(=O)N(CC(C)(C)C)c2cncc(C)c2)c(N2CCC(COc3cc(C(CC(=O)O)C4CC4)ccn3)CC2)c1` (stereo not drawn) [Example 231, 3-cyclopropyl-3-(2-((1-(2-((2,2-dimethylpropyl) (5-methylpyridin-3-yl)carbamoyl)-5-methoxyphenyl)piperidin-4-yl)methoxy)pyridin-4-yl)propanoic acid] came in with an activation at 1 µM of 92%.

Turning to `COc1ccc(C(=O)N(CC(C)(C)C)c2cc(C)cnn2)c(N2CCC(COc3cc(C(CC(=O)O)C4CC4)ccn3)CC2)c1` (stereo not drawn) [Example 232, 3-cyclopropyl-3-(2-((1-(2-((2,2-dimethylpropyl) (5-methylpyridazin-3-yl)carbamoyl)-5-methoxyphenyl)piperidin-4-yl)methoxy)pyridin-4-yl)propanoic acid], the activation at 1 µM stood at 85%.

`COc1ccc(C(=O)N(CC(C)(C)C)C2CCCN(CC(F)(F)F)C2)c(N2CCC(COc3cc(C(CC(=O)O)C4CC4)ccn3)CC2)c1` (stereo not drawn) [Example 233, 3-cyclopropyl-3-(2-((1-(2-((2,2-dimethylpropyl) (1-(2,2,2-trifluoroethyl)piperidin-3-yl)carbamoyl)-5-methoxyphenyl)piperidin-4-yl)methoxy)pyridin-4-yl)propanoic acid] showed an activation at 1 µM of 85%.

Molecule `COc1ccc(C(=O)N(CC(C)(C)C)c2nc(C)ccc2F)c(N2CCC(COc3cc(C(CC(=O)O)C4CC4)ccn3)CC2)c1` (stereo not drawn) [Example 234, 3-cyclopropyl-3-(2-((1-(2-((2,2-dimethylpropyl) (3-fluoro-6-methylpyridin-2-yl)carbamoyl)-5-methoxyphenyl)piperidin-4-yl)methoxy)pyridin-4-yl)propanoic acid] gave an activation at 1 µM of 97%.

The molecule `COc1ccc(C(=O)N(CC(C)(C)C)c2cncc(C(F)(F)F)c2)c(N2CCC(COc3cc(C(CC(=O)O)C4CC4)ccn3)CC2)c1` (stereo not drawn) [Example 235, 3-cyclopropyl-3-(2-((1-(2-((2,2-dimethylpropyl) (5-(trifluoromethyl)pyridin-3-yl)carbamoyl)-5-methoxyphenyl)piperidin-4-yl)methoxy)pyridin-4-yl)propanoic acid] registered an activation at 1 µM of 91%.

In the case of `COc1ccc(C(=O)N(CC(F)(F)F)c2cncc(C(F)(F)F)c2)c(N2CCC(COc3cc(C(CC(=O)O)C4CC4)ccn3)CC2)c1` (stereo not drawn) [Example 236, 3-cyclopropyl-3-(2-((1-(5-methoxy-2-((2,2,2-trifluoroethyl) (5-(trifluoromethyl)pyridin-3-yl)carbamoyl)-phenyl)piperidin-4-yl)methoxy)pyridin-4-yl)propanoic acid], the activation at 1 µM came to 91%.

In turn, `COc1ccc(C(=O)N(CC2CC2)c2nccc(C(F)(F)F)n2)c(N2CCC(COc3cc(C(CC(=O)O)C4CC4)ccn3)CC2)c1` (stereo not drawn) [Example 237, 3-cyclopropyl-3-(2-((1-(2-((cyclopropylmethyl) (4-(trifluoromethyl)-pyrimidin-2-yl)carbamoyl)-5-methoxyphenyl)piperidin-4-yl)methoxy)pyridin-4-yl)propanoic acid] returned an activation at 1 µM of 98%.

With `COc1ccc(C(=O)N(CC(F)(F)F)c2cc(C)nc(C)n2)c(N2CCC(COc3cc(C(CC(=O)O)C4CC4)ccn3)CC2)c1` (stereo not drawn) [Example 238, 3-cyclopropyl-3-(2-((1-(2-((2,6-dimethylpyrimidin-4-yl) (2,2,2-trifluoroethyl)-carbamoyl)-5-methoxyphenyl)piperidin-4-yl)methoxy)pyridin-4-yl)propanoic acid], the activation at 1 µM is 101%.
